Results reported in patent US7265156B2 (Dospharma, priority 2000, dated 2007).
Counter-ions that a name gives are not always drawn. Like-named read-outs stand apart in the source and are kept apart here.

What was measured:
[1] = test system: rats made diabetic with fructose; assay: Anti-diabetic activity in rats made diabetic with fructose at 10% in the drinking water; format: in vivo, rat; details: for 21 days fructose (glycemia mM) / Control (glycemia mM): rats; for 21 days fructose (glycemia mM): group baseline after 21 days fructose, before treatment; for Control (glycemia mM): group baseline before fructose and before treatment
Method: The second model is prepared by administering fructose at 10% in the drinking water of the rats for three weeks. An insulin resistance develops, followed by diabetes of […] type. […]

NIDDM patients = details: humans, simultaneous administration, arginine 30 g intravenous over 30 min; cited from earlier work
[2] = 50 mg/kg
[3] = test system: streptozotocine model and fructose model; details: rats, 50 mg/kg; cited from earlier work
[4] = test system: rats made diabetic with streptozotocin; assay: Anti-diabetic activity in rats made diabetic with streptozotocin; format: in vivo, rat; details: streptozotocin rats (50 mg/kg IP); for hyperglycemia after treatment: 30 mg/kg; for hyperglycemia before treatment: baseline of the 30 mg/kg group
Text: From the pharmacological point of view, the anti-diabetic activity was studied on two models of rats made diabetic.

[5] = test system: hamsters made diabetic by fructose; assay: Anti-diabetic activity in hamsters made diabetic by fructose for three months; format: in vivo, hamster; details: for 2 weeks treatment (glycemia mg/dl): hamsters, fructose 3 months, 10 mg/kg/day, fructose only 143, control without fructose 91 mg/dl
Method: The anti diabetic activity was also tested on hamsters made diabetic by the administration of fructose for three months. […]

[6] = In vitro assay of cleavage in an intestinal juice; format: in vitro ADME; details: 37° C., arginine hemisuccinimide part not modified
Method: A preparation of intestinal juice containing trypsin, peptidases, lipase, amylase and all the other enzymes of the exocrine pancreas is used. This assay is validated beforehand using calibration compounds. A known amount (of the order of one microgram) of the compound A′V′C′ is mixed together with a known amount of intestinal juice (the trypsin and lipase contents of which are controlled). The reaction mixture is kept at 37° C. for one hour. This time is compatible with the intestinal transit. Samples are taken every 15 min, and the products A and C are detected and their concentration measured using HPLC coupled to a UV detector, or a mass spectrometer if it is not possible to use UV. The columns used depend on the nature of A and of C, but are generally ion-exchange columns, because of the presence of released alcohol, amine or acid forms. […] This assay can be coupled with determination of the release of A (biguanide), C (transporter) and V in the gastric juice, using exactly the same principle but replacing the intestinal juice with gastric juice.
A second assay is carried out on a rat hepatocyte culture, according to the method described above.

[7] = test system: microcirculation of the hamster cheek pouch; assay: Study on the cheek pouch of the hamster (microcirculation); format: in vivo; details: vasodilatory action of arginine and action of metformin on vasomotion

Row | Compound | 4 days treatment (glycemia mM) ([1]; fructose rats, 30 mg/kg/day) [mM] | 8 days treatment (glycemia mM) ([1]; fructose rats, 30 mg/kg/day) [mM] | 12 days treatment (glycemia mM) ([1]; fructose rats, 30 mg/kg/day) [mM] | 21 days treatment (glycemia mM) ([1]; fructose rats, 30 mg/kg/day) [mM] | 21 days fructose (glycemia mM) [1] [mM] | Control (glycemia mM) [1] [mM] | hyperglycemia after treatment [4] [mM] | hyperglycemia before treatment [4] [mM] | 2 weeks treatment (glycemia mg/dl) [5] [mg/dL] | also measured
1 | N=C(N)NCCC[C@H](N)C(=O)O [arginine] | 14.37 ± 0.20 | 12.56 ± 0.89 | 11.98 ± 0.71 | 10.73 ± 1.27 | 13.24 ± 0.62 | 6.87 ± 0.14 | – | – | – | effect on the antihyperglycemic effects of metformin (NIDDM patients): not modified
2 | CN(C)C(=N)N=C(N)N [metformin hydrochloride] | – | – | – | – | – | – | – | – | – | concentration peak ([2]; rat, in vivo, po): 3900 ng/mL; time of concentration peak ([2]; rat, in vivo, po): ≤ 90 min; activity on conventional models of non-insulin dependent diabetes [3]: active
3 | CN(C)C(=N)NC(=N)N [metformin, N,N-dimethylimidodicarbonimidic diamide] | 13.41 ± 0.52 | 10.83 ± 0.64 | 9.78 ± 0.72 | 9.87 ± 0.68 | 12.52 ± 0.52 | 6.94 ± 0.13 | 9.85 | 12.11 | 112 | effect on the hemodynamic and hemorheological action of arginine (NIDDM patients): potentiates
4 | arginine hemisuccinimide-metformin hemisuccinate | – | – | – | – | 12.14 ± 0.28 | 6.84 ± 0.06 | 7.56 | 12.66 | 93 | release of the metformin [6]: Immediate release; 4 days treatment (glycemia mM) ([1]; fructose rats, 70 mg/kg/day): 10.92 ± 0.44 mM; 8 days treatment (glycemia mM) ([1]; fructose rats, 70 mg/kg/day): 9.13 ± 0.64 mM; 12 days treatment (glycemia mM) ([1]; fructose rats, 70 mg/kg/day): 8.43 ± 0.52 mM; 21 days treatment (glycemia mM) ([1]; fructose rats, 70 mg/kg/day): 7.76 ± 0.78 mM; anti-diabetic activity compared with metformin alone ([1]; fructose rats, equivalent dose of metformin base): significantly more active; anti-diabetic activity compared with metformin on its own ([5]; fructose hamsters, equal dose of 10 mg/kg/day, two weeks of treatment): significantly more active; effects on the microcirculation [7]: reproduces at least the effects of the two active principles; time of concentration peak ([2]; rats, oral, plasma metformin): 60 min
